Results: publication PMC10333884, “Large‐scale phosphomimetic screening identifies phospho‐modulated motif‐based protein interactions” (Molecular Systems Biology, 2023)
Each block holds one compound with its values, some of them ahead of it. Residues, ends and D or L forms follow the SMILES beside them. *: point of attachment. FITC = O=C1OC2(c3ccc(O)cc3Oc3cc(O)ccc32)c2ccc(NC(=S)*)cc21

Key:
KPNA4 ARM minor = target: T1, KPNA4 ARM minor (Homo sapiens, UniProt O00629); assay: FP saturation experiment, KPNA4 ARM (minor); conditions: FP saturation (direct binding), 5 nM FITC-labelled peptide, 50 mM sodium phosphate pH 7.4, room temperature; at least technical triplicates; reference for probe peptide PMID: 35044719; read-out: KD [µM] + SE
T1 construct: 60-487; GST (cleaved yes); made in house; host or cells: Escherichia coli BL21-Gold(DE3)
T1 sequence (O00629 60-487): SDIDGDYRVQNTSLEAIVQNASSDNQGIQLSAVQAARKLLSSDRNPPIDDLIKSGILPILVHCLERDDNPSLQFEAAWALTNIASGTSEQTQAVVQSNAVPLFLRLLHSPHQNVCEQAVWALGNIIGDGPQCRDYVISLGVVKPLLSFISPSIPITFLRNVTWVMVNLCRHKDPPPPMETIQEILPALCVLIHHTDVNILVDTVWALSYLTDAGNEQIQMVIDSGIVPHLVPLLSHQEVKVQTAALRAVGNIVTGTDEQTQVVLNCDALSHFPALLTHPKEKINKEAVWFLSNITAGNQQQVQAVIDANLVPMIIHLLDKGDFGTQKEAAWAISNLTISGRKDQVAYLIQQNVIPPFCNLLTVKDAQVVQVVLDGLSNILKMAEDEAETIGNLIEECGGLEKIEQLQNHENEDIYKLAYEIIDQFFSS
Experimental: (§1) FP experiments were performed as described previously (Kliche et al, [2021]). Shortly, in order to monitor the binding event, FITC‐labelled peptides were used (excitation 495 nm, emission: 535 nm) and the FP signal was recorded in mP on a SpectraMax iD5 Multi‐Mode Microplate Reader (Molecular Devices) by measuring the emitted light in two angels. The measurements were performed at room temperature and prepared in nonbinding black half area 96‐well microplates (Corning®; 50 μl/well). For measuring direct binding, that is saturation curves, a 1:1 dilution series of protein domain (25 μl/well) was generated in 50 mM sodium phosphate buffer pH 7.4 and the measurement performed with 5 nM FITC‐labelled peptide (25 μl/well). The buffer‐corrected values were subsequently plotted with PRISM and fitted to the quadratic equation (Gianni et al, [2005]).

AP2 μ2 [1] = target: T2, AP2 μ2 (Homo sapiens, UniProt Q96CW1); assay: Phosphomimetic ProP-PD selection, AP2 μ2; conditions: phosphomimetic enrichment score of the wild-type/phosphomimetic (E) pair at the phosphosite, PM_HD2 phage selection, all overlapping peptides and replicates; positive = phosphomimetic enhances binding; P-value in brackets not taken
T2 construct: AP2_Mu__Q96CW1_160_435; GST (cleaved yes); made in house; host or cells: Escherichia coli BL21-Gold(DE3)
T2 sequence (Q96CW1 160-435): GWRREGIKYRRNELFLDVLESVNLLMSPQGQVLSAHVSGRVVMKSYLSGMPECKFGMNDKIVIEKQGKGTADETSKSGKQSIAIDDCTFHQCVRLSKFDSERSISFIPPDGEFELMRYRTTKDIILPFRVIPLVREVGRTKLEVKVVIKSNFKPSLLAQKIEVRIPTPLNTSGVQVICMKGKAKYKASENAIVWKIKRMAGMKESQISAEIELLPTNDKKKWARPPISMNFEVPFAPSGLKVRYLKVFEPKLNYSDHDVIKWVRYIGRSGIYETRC
Experimental: Selections using the PM_HD2 phage library were performed as described previously with minor modification to the original protocol. The corresponding tag protein (either GST or MBP) was first used during negative selections. Selections were run for 4 days. • Bait and tag proteins (10–15 μg in 100 μl PBS) were immobilised in 96‐well MaxiSorb plate (NUNC) o.n. at 4°C. • Escherichia coli OmniMax bacteria were grown in 2YT medium supplemented with tetracycline (100 μg/ml) at 37°C and 200 rpm. • Plates with immobilised bait/tag proteins were blocked with 0.5% BSA in PBS for 1 h at 4°C. • Phage library (10 μl/well) was prepared by diluting 10× with PBS and adding one‐fourth of the volume of PEG/NaCl. For phage precipitation, prepared library was incubated for 10 min on ice followed by centrifugation for 10 min at 10,000 × g at 4°C. […]
Based on the results from phage pool ELISAs, samples from selection Day 3 and 4 were selected for NGS, as described previously (Benz et al, [2022]). • Peptide coding regions were amplified and dual‐barcoded by PCR. […] From the columns, samples were eluted with 30 μl TE (10 mM Tris–HCl, 1 mM EDTA. pH 7.5) buffer and quantified with Quant‐iT PicoGreen dsDNA Assay Kit. • Samples were sequenced on MiSeq (MSC 2.5.0.5/RTA 1.18.54) with a 151 nt (Read1) setup using “Version3” chemistry. […]

AP2 μ2 [2] = target: T2, AP2 μ2; assay: FP displacement assay, AP2 μ2; format: binding; conditions: probe FITC-ATG9A 5 nM, 50 mM sodium phosphate pH 7.4, room temperature, at least three technical replicates, read-out: KD values ± SEM
Experimental: as §1
The 1:1 dilution series in this experiment was performed with the unlabelled peptide in 50 mM sodium phosphate buffer pH 7.4, so that each well‐contained unlabelled peptide (25 μl) at a certain concentration and pre‐formed complex (25 μl). The KD values of this indirectly monitored binding event were calculated as described previously (Nikolovska‐Coleska et al, [2004]). All measurements were at least in technical triplicates as well as biological duplicates when indicated. An amplitude shift between repeat measurements in the displacement experiments was occasionally observed due to variations in the protein preparations. If that was the case, the “active” protein concentration was back‐calculated according to the quadratic equation from the saturation curves performed in parallel. By comparing the active protein concentrations in the complex between different protein preparations, the amplitude was normalised.

PIN1 WW domain = assay: FP displacement assay, PIN1 WW domain (GST-tagged); format: binding, human; conditions: probe FITC-SMAD3, technical triplicates
Experimental: For FP, ITC and crystallisation, the tag was removed with the appropriate protease either on beads (0.1 mg/ml thrombin (Cytiva) in PBS, 1 mM dithiothreitol (DTT)) or by dialysis in cleavage buffer (Human Rhinovirus (HRV) 3C protease: 50 mM Tris–HCl pH 7.4, 150 mM NaCl, 1 mM β‐mercaptoethanol), both procedures were overnight. In case of HRV protease cleavage, the tag was separated from the target protein domain by reverse ion metal affinity chromatography using Ni^2+ beads for purification, whereas thrombin was removed using a benzamidine column (Cytiva). Affinity measurements for SNX27 PDZ were performed on the MBP‐tagged construct, as well as PIN1 WW domain on the GST‐tagged construct. For FP and ITC, proteins were dialysed in 50 mM sodium phosphate buffer pH 7.4, 1 mM DTT. For crystallisation of the NTD of clathrin, the protein was further purified by a S200 Sepharose column (Cytiva) using 20 mM Tris–HCl pH 7.4, 150 mM NaCl and 1 mM DTT.
FP experiments were performed as described previously (Kliche et al, [2021]). Shortly, in order to monitor the binding event, FITC‐labelled peptides were used (excitation 495 nm, emission: 535 nm) and the FP signal was recorded in mP on a SpectraMax iD5 Multi‐Mode Microplate Reader (Molecular Devices) by measuring the emitted light in two angels. […]

GGA1 VHS = target: T3, GGA1 VHS (Homo sapiens, UniProt Q9UJY5); assay: FP saturation experiment, GGA1 VHS; conditions: FP saturation (direct binding), 5 nM FITC-labelled peptide, 50 mM sodium phosphate pH 7.4, room temperature; at least technical triplicates; reference for probe peptide RiboVD, Mihalič et al, to be published; read-out: KD [µM] + SE
T3 construct: GGA1_VHS__Q9UJY5_1_157; GST (cleaved yes); made in house; host or cells: Escherichia coli BL21-Gold(DE3)
T3 sequence (Q9UJY5 1-157): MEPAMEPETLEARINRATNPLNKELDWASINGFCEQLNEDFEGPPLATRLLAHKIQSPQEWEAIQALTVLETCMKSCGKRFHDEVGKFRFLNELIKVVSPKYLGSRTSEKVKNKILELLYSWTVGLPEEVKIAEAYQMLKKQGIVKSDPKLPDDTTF
Experimental: as §1

GABARAPL2 ATG8 = target: T4, GABARAPL2 ATG8 (Homo sapiens, UniProt P60520); assay: FP saturation experiment, GABARAPL2 ATG8; conditions: FP saturation (direct binding), 5 nM FITC-labelled peptide, 50 mM sodium phosphate pH 7.4, room temperature; at least technical triplicates; reference for probe peptide PMID: 33436498; read-out: KD [µM] + SE
T4 construct: GABARAPL2_ATG8__P60520_2_115; GST (cleaved yes); made in house; host or cells: Escherichia coli BL21-Gold(DE3)
T4 sequence (P60520 2-115): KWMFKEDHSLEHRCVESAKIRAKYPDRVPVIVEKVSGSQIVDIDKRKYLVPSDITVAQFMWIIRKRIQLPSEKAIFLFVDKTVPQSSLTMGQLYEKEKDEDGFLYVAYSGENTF
Experimental: as §1

MAP1LC3B ATG8 = target: T5, MAP1LC3B ATG8 (Homo sapiens, UniProt Q9GZQ8); assay: FP saturation experiment, MAP1LC3B ATG8; conditions: FP saturation (direct binding), 5 nM FITC-labelled peptide, 50 mM sodium phosphate pH 7.4, room temperature; at least technical triplicates; reference for probe peptide PMID: 33436498; read-out: KD [µM] + SE
T5 construct: MAP1LC3B ATG8; made in house; host or cells: Escherichia coli BL21-Gold(DE3)
Experimental: as §1

Compound: CC[C@H](C)[C@H](NC(=O)[C@H](C)NC(=O)[C@H](CCCNC(=N)N)NC(=O)CNC(=O)[C@@H](NC(=O)[C@H](CCCNC(=N)N)NC(=O)CNC(=O)[C@H](CCC(=O)O)NC(=O)[C@H](CCSC)NC(=O)[C@H](CCSC)NC(=O)[C@H](CC(=O)O)NC(=O)[C@H](Cc1ccc(O)cc1)NC(=O)[C@@H](NC(=O)[C@H](CCCNC(=N)N)NC(=O)[C@H](CCCCN)NC(=O)[C@@H]1CCCN1C(=S)Nc1ccc2c(c1)C(=O)OC21c2ccc(O)cc2Oc2cc(O)ccc21)[C@@H](C)O)C(C)C)C(N)=O [FITC-NCOR2] ({FITC}-PKRTYDMMEGRVGRAI-NH2)
Kd (KPNA4 ARM minor): 0.013 ± 0.0008 µM

Compound: CC[C@H](C)[C@H](NC(=O)[C@@H](NC(=O)[C@@H]1CCCN1C(=O)[C@H](CCC(=O)O)NC(=O)[C@H](CO)NC(=O)[C@H](C)NC(=O)[C@@H]1CCCN1C(=O)[C@H](CCSC)NC(=O)[C@@H]1CCCN1C(=O)[C@H](CCC(N)=O)NC(=O)[C@H](Cc1ccc(O)cc1)NC(=O)[C@@H]1CCCN1C(=O)[C@@H](NC(=O)[C@@H](NC(=O)[C@H](CCSC)NC(C)=O)[C@@H](C)O)[C@@H](C)CC)C(C)C)C(=O)N[C@@H](CS)C(N)=O [PCBP1_179–194 E] (Ac-MTIPYQPMPASEPVIC-NH2)
PES (AP2 μ2 [1]): 1 (0.15) | Kd (AP2 μ2 [2]): 2.05 ± 0.09 µM

Compound: CC(C)C[C@H](NC(=O)[C@H](Cc1c[nH]cn1)NC(=O)[C@@H](NC(=O)[C@H](Cc1c[nH]c2ccccc12)NC(=O)[C@H](CC(=O)O)NC(=O)[C@H](CC(=O)O)NC(=O)[C@H](CC(=O)O)NC(=S)Nc1ccc2c(c1)C(=O)OC21c2ccc(O)cc2Oc2cc(O)ccc21)[C@@H](C)O)C(=O)N[C@@H](CO)C(=O)N[C@@H](CO)C(=O)N[C@@H](CCCCN)C(N)=O [FITC-SQSTM1]
Kd (GABARAPL2 ATG8): 11 ± 1 µM | Kd (MAP1LC3B ATG8): 2.5 ± 0.2 µM

Next, values leading:

PES (AP2 μ2 [1]): 1.2 (0.095) | Kd (AP2 μ2 [2]): 0.49 ± 0.08 µM
Compound: CC(=O)N[C@@H](Cc1ccccc1)C(=O)N1CCC[C@H]1C(=O)N[C@@H](CO)C(=O)N[C@@H](CCC(=O)O)C(=O)N[C@@H](Cc1ccc(O)cc1)C(=O)N[C@H](C(=O)N[C@@H](CCCCN)C(=O)N[C@@H](CC(C)C)C(=O)N[C@@H](CC(C)C)C(=O)N[C@@H](CCC(=O)O)C(=O)N[C@@H](CCC(=O)O)C(=O)N[C@@H](CC(N)=O)C(=O)N[C@@H](CCC(=O)O)C(=O)N[C@H](C(=O)N[C@@H](CCC(=O)O)C(=O)N[C@@H](C)C(N)=O)[C@@H](C)O)[C@@H](C)O [BAIAPL1_392–407 E] (Ac-FPSEYTKLLEENETEA-NH2)

binding in FP displacement experiment (PIN1 WW domain): none of the peptides tested
Compound: H3COC-MSETQSS(pS/E)PTKGVLMY-NH2 [PIAS2_493–507 wt, wild-type PIAS2 493-507 peptide]

Kd (GGA1 VHS): 31 ± 4 µM
Compound: CC[C@H](C)[C@H](NC(=O)[C@H](Cc1c[nH]cn1)NC(=O)[C@H](CC(C)C)NC(=O)[C@H](CC(C)C)NC(=O)[C@H](CC(=O)O)NC(=O)[C@H](CCC(=O)O)NC(=O)[C@H](CC(=O)O)NC(=O)[C@H](CO)NC(=O)[C@H](CC(=O)O)NC(=O)[C@H](CC(=O)O)NC(=S)Nc1ccc2c(c1)C(=O)OC21c2ccc(O)cc2Oc2cc(O)ccc21)C(=O)O [FITC-IGF2R] ({FITC}-DDSDEDLLHI-OH)
